Laboratory results taken from PMC4931477, “Electronic Biosensing with Functionalized rGO FETs” (Biosensors, 2016).

How the values were obtained:
[1] = target: T1, OBP14 (odorant binding protein 14) (Apis mellifera, UniProt A0A8U0WQC3); assay: rGO-FET biosensor, real-time kinetics (koff/kon), source-drain current
T1 construct: recombinant, bacterial expression, purified by chromatography and Superose-12 gel filtration; covalently immobilized via PBSE linker on rGO FET gate
T1 sequence (A0A8U0WQC3 17-135): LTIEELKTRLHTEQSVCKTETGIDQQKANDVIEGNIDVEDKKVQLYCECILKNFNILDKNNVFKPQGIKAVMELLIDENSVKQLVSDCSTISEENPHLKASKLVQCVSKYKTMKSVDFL

[2] = target: T1, OBP14 (odorant binding protein 14); assay: rGO-FET biosensor, equilibrium titration, Langmuir isotherm; settings: protein covalently immobilized via PBSE on rGO gate; aqueous solution; titration determination
[3] = target: T1, OBP14 (odorant binding protein 14); assay: rGO-FET biosensor, shift of ISD-vs-VG curves with ligand concentration; settings: protein covalently immobilized via PBSE on rGO gate; liquid gate, VSD = 50 mV

SMILES	Kd [1]	KA [2]	rGO-FET biosensor, shift of ISD-vs-VG curves with ligand concentration [3]
COc1cc(CC(=O)O)ccc1O [homovanillic acid]	7.1 µM	2.5 × 10^5	–
C=CCc1ccc(O)c(OC)c1 [Eugenol]	–	–	OBP14 functionalized rGO FET-biosensor device at different Eugenol concentrations
